Reference: publication PMC3871636 (PLoS ONE, 2013)
Where a name gives a salt, the structure may show the parent alone.

Columns and labels:
[1] = target: CYP3A4 (C377/C468 mutant) (Homo sapiens, UniProt P08684, form not given/S18F); assay: Ligand-induced spin shift, absorbance titration; assay type: binding; details: human, purified CYP3A4(C377/C468) mutant protein, pH 7.4; read-out: K D or S 50
Procedure: (§1) All absorbance and fluorescence assays (including the time-resolved fluorescence measurements) were performed at a protein concentration ≤1 µM at 25°C with continuous stirring. Absorbance spectra were recorded with an S2000 rapid scanning CCD spectrometer (Ocean Optics). Ligand binding assays were done in 100 mM Na-Hepes buffer, pH 7.4, containing 0.5 mM EDTA.
(§2) Absorbance spectra obtained in titration experiments were analyzed with a principal component analysis (PCA) procedure complemented with least-square approximation of the principal vectors with a combination of the prototypical spectra of the CYP3A4 low-spin, high-spin and Type II-substrate-bound ferric CYP3A4 P450 states as described, [31].
(§3) When fitting the results of titration experiments, where the changes in the monitored signal A S (fraction of the enzyme in the high-spin state, intensity or the lifetime of the donor phosphorescence at a given substrate concentration) were assumed to be proportional to [ES], this equation was complemented with the offset A 0 and the scaling factor A max to yield the following relationship: [drawing 5] (Eq.5)

CYP3A4 (C64/C468 mutant) = CYP3A4 (C64/C468 mutant) (Homo sapiens, UniProt P08684, form not given/S18F); assay: Ligand-induced spin shift, absorbance titration; assay type: binding; details: human, purified CYP3A4(C64/C468) mutant protein, pH 7.4; read-out: K D or S 50
Chain of CYP3A4 (C64/C468 mutant) (P08684 13-503 S18F, form open): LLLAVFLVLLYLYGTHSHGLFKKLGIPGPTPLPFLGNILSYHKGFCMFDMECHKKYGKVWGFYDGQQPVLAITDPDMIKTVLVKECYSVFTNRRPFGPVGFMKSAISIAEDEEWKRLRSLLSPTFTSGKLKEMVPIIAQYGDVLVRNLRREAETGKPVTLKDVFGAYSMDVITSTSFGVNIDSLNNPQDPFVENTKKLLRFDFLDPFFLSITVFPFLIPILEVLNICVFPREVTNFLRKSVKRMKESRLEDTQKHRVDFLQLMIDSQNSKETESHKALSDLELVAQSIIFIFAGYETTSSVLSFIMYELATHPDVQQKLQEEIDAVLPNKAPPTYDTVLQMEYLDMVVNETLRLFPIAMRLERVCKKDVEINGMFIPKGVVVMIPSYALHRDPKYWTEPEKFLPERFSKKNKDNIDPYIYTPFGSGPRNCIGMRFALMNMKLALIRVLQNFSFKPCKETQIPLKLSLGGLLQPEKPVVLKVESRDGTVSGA
Procedure: as §1, §2, §3

[2] = target: T1, double-labeled CYP3A4 C377/C468-DY/ER (Homo sapiens, UniProt P08684, S18F, form not given); assay: Time-resolved LRET (phosphorescence lifetime measurements)
T1 sequence (P08684 13-503 S18F, form open): as above
Source text: (§4) The excitation wavelength was set to 540 nm.

[3] = target: double-labeled CYP3A4 (C64/C468)-ER/DY (Homo sapiens, UniProt P08684, S18F, form not given); assay: as above
Chain of double-labeled CYP3A4 (C64/C468)-ER/DY (P08684 13-503 S18F, form open): as above
Source text: as §4

[4] = target: double-labeled CYP3A4 (C64/C468)-DY/ER (Homo sapiens, UniProt P08684, S18F, form not given); assay: as above
Chain of double-labeled CYP3A4 (C64/C468)-DY/ER (P08684 13-503 S18F, form open): as above
Source text: as §4

[5] = target: CYP3A4 (double-labeled (C64/C468)-DY/ER) (Homo sapiens, UniProt P08684, form not given/S18F); assay: Steady-state LRET titration (delayed emission); assay type: binding; details: human, purified double-labeled CYP3A4 (C64/C468)-DY/ER protein, pH 7.4; (C64/C468)-DY/ER; LRET titration; read-out: K d, steady-state fluorescence
Chain of CYP3A4 (double-labeled (C64/C468)-DY/ER) (P08684 13-503 S18F, form open): as above
Procedure, shortened: (§5)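 Protein at ≤1 µM, 25°C, stirred, in 100 mM Na-Hepes pH 7.4 with 0.5 mM EDTA, kept anaerobic with a protocatechuate-3,4-dioxygenase/protocatechuic acid scavenger. Delayed emission (100 µs delay) recorded from 650 to 860 nm at 540 nm excitation, with PCA-resolved donor/acceptor intensities giving LRET efficiency and distances (κ² 0.667, n 1.4). Titration signals fitted to a binding equation with offset and scaling terms.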

[6] = target: T1, double-labeled CYP3A4 C377/C468-DY/ER; assay: Steady-state LRET titration (delayed emission); assay type: binding; details: Table S2; protein C377/C468-ER/DY; same ligand concentrations
Procedure, shortened: as §5

[7] = target: T2, double-labeled CYP3A4 C64/C121-DY/ER (Homo sapiens, UniProt P08684, A121C/C239S/C377S/C468A/C98S/S18F); assay: Time-resolved LRET (phosphorescence lifetime measurements)
T2 sequence (P08684 with tags, fused parts or gaps S18F/C98S/A121C/C239S/C377S/C468A limits assumed): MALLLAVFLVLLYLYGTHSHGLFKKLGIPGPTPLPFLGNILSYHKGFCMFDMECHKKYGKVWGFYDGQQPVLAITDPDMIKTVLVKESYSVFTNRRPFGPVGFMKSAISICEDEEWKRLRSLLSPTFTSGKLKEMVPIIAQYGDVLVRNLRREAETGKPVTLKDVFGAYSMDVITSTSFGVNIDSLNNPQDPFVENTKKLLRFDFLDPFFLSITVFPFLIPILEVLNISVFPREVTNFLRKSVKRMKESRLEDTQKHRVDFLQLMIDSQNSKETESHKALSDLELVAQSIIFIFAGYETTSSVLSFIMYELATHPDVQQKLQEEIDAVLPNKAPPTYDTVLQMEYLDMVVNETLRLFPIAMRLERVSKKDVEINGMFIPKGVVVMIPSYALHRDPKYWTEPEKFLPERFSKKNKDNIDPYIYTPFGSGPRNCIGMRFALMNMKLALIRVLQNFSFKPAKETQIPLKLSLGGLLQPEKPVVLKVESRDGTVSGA
Procedure, shortened: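 Double-labeled CYP3A4 (≤1 µM) in 100 mM Na-Hepes pH 7.4, 0.5 mM EDTA, 25°C, anaerobic via protocatechuate dioxygenase/protocatechuic acid; excitation 540 nm, emission 650–860 nm, 100 µs delay. Bi-exponential average lifetimes give LRET efficiency against ERIA-only labeled protein; distances via Förster equation (κ²=0.667, n=1.4).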

[8] = target: T2, double-labeled CYP3A4 C64/C121-DY/ER; assay: Steady-state LRET titration (delayed emission); details: Table S2; protein C64/C121-ER/DY; same ligand concentrations
Procedure, shortened: as §5

[9] = Table S1, protein (C377/C468)-ER/DY, same ligand concentrations
[10] = Table S2, protein C377/C468-ER/DY, same ligand concentrations
[11] = Table S1, (C64/C468)-ER/DY, same ligand concentrations
[12] = Table S2, C64/C468-ER/DY, same ligand concentrations
[13] = Table S1, (C64/C468)-DY/ER, same ligand concentrations
[14] = Table S2, C64/C468-DY/ER, same ligand concentrations
[15] = Table S1, protein (C64/C121)-ER/DY, same ligand concentrations
[16] = Table S2, protein C64/C121-ER/DY, same ligand concentrations

Chain of CYP3A4 (C377/C468 mutant) (P08684 13-503 S18F, form open): as the sequence (P08684 13-503 S18F, form open) above

## CC(C)C[C@H]1C(=O)N2CCC[C@H]2[C@]2(O)O[C@](NC(=O)[C@@H]3C=C4c5cccc6[nH]c(Br)c(c56)C[C@H]4N(C)C3)(C(C)C)C(=O)N12 [Bromocriptine, Bromocriptine mesylate]
[1]
  Kd: 960 ± 200 nM
CYP3A4 (C64/C468 mutant)
  Kd: 340 ± 100 nM
[2]; Table S1, protein (C377/C468)-ER/DY, 1-PB 40 µM, ANF 100 µM, BCT 2.5 µM, cholesterol 100 µM, testosterone 100 µM, bi-exponential fit
  τ1 (phosphorescence decay time with ligand): 25 ± 9 µs
[2]; [9]
  F1 (fraction of first exponential): 20 ± 4%
  τ2 (phosphorescence decay time with ligand): 129 ± 6 µs
  τav (average phosphorescence lifetime with ligand): 108 ± 3 µs
[2]; [10]
  R (interprobe distance with ligand), lifetime measurements: 36.8± 0.4 Å
  ΔR, lifetime measurements: 0.0 ± 0.4 Å
[3]; (C64/C468)-ER/DY, nearly-saturating ligand: ANF 100 µM, bromocriptine 2.5 µM, cholesterol 50 µM, testosterone 100 µM
  ΔR (change in interprobe distance), lifetime measurements: −0.3±0.6 Å
[3]; Table S1, (C64/C468)-ER/DY, 1-PB 40 µM, ANF 100 µM, BCT 2.5 µM, cholesterol 100 µM, testosterone 100 µM, bi-exponential fit
  τ1 (phosphorescence decay time with ligand): 39 ± 12 µs
[3]; [11]
  F1 (fraction of first exponential): 28 ± 5%
  τ2 (phosphorescence decay time with ligand): 168 ± 2 µs
  τav (average phosphorescence lifetime with ligand): 131 ± 5 µs
[3]; [12]
  R (interprobe distance with ligand), lifetime measurements: 36.0 ± 0.5 Å
  ΔR, lifetime measurements: -0.3 ± 0.5 Å
[4]; (C64/C468)-DY/ER, nearly-saturating ligand: ANF 100 µM, bromocriptine 2.5 µM, cholesterol 50 µM, testosterone 100 µM
  ΔR (change in interprobe distance), lifetime measurements: 0.3±1.0 Å
[4]; Table S1, (C64/C468)-DY/ER, 1-PB 40 µM, ANF 100 µM, BCT 2.5 µM, cholesterol 100 µM, testosterone 100 µM, bi-exponential fit
  τ1 (phosphorescence decay time with ligand): 55 ± 9 µs
[4]; [13]
  F1 (fraction of first exponential): 44 ± 5%
  τ2 (phosphorescence decay time with ligand): 209 ± 20 µs
  τav (average phosphorescence lifetime with ligand): 141 ± 7 µs
[4]; [14]
  R (interprobe distance with ligand), lifetime measurements: 37.1 ± 0.8 Å
  ΔR, lifetime measurements: 0.3 ± 0.8 Å
[5]
  Kd: 700 ± 100 nM
[6]
  R (interprobe distance with ligand), steady-state measurements: 44.7 ± 0.1 Å
  ΔR, steady-state measurements: 0.0 ± 0.1 Å
[7]; C64/C121-DY/ER, stated for both steady-state and lifetime experiments
  increase in the interprobe distance: 1.3 Å
[7]; Table S1, protein (C64/C121)-ER/DY, 1-PB 40 µM, ANF 100 µM, BCT 2.5 µM, cholesterol 100 µM, testosterone 100 µM, bi-exponential fit
  τ1 (phosphorescence decay time with ligand): 75 ± 13 µs
[7]; [15]
  F1 (fraction of first exponential): 49 ± 5%
  τ2 (phosphorescence decay time with ligand): 242 ± 15 µs
  τav (average phosphorescence lifetime with ligand): 159 ± 2 µs
[7]; [16]
  R (interprobe distance with ligand), lifetime measurements: 36.4 ± 0.1 Å
  ΔR, lifetime measurements: 1.3 ± 0.1 Å
[8]
  R (interprobe distance with ligand), steady-state measurements: 43.6 ± 0.9 Å
  ΔR, steady-state measurements: 1.0 ± 0.9 Å
